For 16 compounds, T/C results are on record in PubChem BioAssay AID212 (DTP/NCI, 2004).

The structures appear in SMILES notation. “And” between values parts separate entries of the source, which are not always exact repeats. Identical values can stand only once. Inconclusive results are not listed.

The test system of the experiment is BDF1 mice, colon carcinoma 38 sc, T/C %. The experiment in a line: NCI In Vivo Anticancer Drug Screen. Data for tumor model Colon Carcinoma 38 (subcutaneous) in B6D2F1 (BDF1) mice. To be noted: endpoint: median tumor weight (est.), higher = larger tumour. Summed up:
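Transplantable tumor in mice; compound-treated vs vehicle-dosed controls. Measured survival or tumor size; value = T ÷ C.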

Where [1] appears, read: dose: 25.0 mg/kg/injection, schedule: Q07DX002 (ip), vehicle: Klucel (hydroxypropylcellulose) (HPC).
Setting [2] is: dose: 50.0 mg/kg/injection, schedule: Q07DX002 (ip), vehicle: Klucel (hydroxypropylcellulose) (HPC).
The mark [3] stands for this setting: dose: 100.0 mg/kg/injection, schedule: Q07DX002 (ip), vehicle: Klucel (hydroxypropylcellulose) (HPC).
The mark [4] stands for this setting: dose: 400.0 mg/kg/injection, schedule: Q07DX002 (ip), vehicle: Klucel (hydroxypropylcellulose) (HPC).
Setting [5] is: dose: 12.5 mg/kg/injection, schedule: Q07DX002 (ip), vehicle: Klucel (hydroxypropylcellulose) (HPC).
Where [6] appears, read: dose: 200.0 mg/kg/injection, schedule: Q07DX002 (ip), vehicle: Klucel (hydroxypropylcellulose) (HPC).
Setting [7] is: dose: 50.0 mg/kg/injection, schedule: Q07DX002 (ip), vehicle: sodium bicarbonate.

`O=S(=O)(SC(S(=O)(=O)c1ccccc1)S(=O)(=O)c1ccccc1)c1ccccc1`: the T/C runs as follows: under setting [1], 174 % of control; under setting [2], 199 % of control; under setting [3], 113 % of control; under setting [4], 115 % of control.

Regarding `Cc1cc(N(CCOS(C)(=O)=O)CCOS(C)(=O)=O)ccc1C=Nc1ccc(-c2nc(Cc3ccccc3)sc2C)cc1`, the T/C was 112 % of control and 91 % of control under setting [5]; 100 % of control and 102 % of control under setting [1]; 112 % of control and 98 % of control under setting [2]; 63 % of control and 76 % of control under setting [3]; 18 % of control and 30 % of control under setting [6].

In the case of `CNC(=O)/C=C/C1=CN2C(=O)c3ccc(C)c(O)c3NC(OC)C2C1` (centres undefined), the T/C by setting is: (dose: 0.03 mg/kg/injection, schedule: Q07DX002 (ip), vehicle: saline) 119 % of control; (dose: 0.06 mg/kg/injection, schedule: Q07DX002 (ip), vehicle: saline) 109 % of control; (dose: 0.25 mg/kg/injection, schedule: Q07DX002 (ip), vehicle: saline) 103 % of control; (dose: 0.5 mg/kg/injection, schedule: Q07DX002 (ip), vehicle: saline) 122 % of control.

In the case of `COc1cccc2c1C(=N)c1c(O)c3c(c(O)c1C2=O)C[C@@](O)(C(C)=O)C[C@@H]3OC1CC(N)C(O)C(C)O1` (some centres undefined), the T/C runs as follows: (dose: 2.25 mg/kg/injection, schedule: Q07DX002 (ip), vehicle: saline) 71 % of control; (dose: 4.5 mg/kg/injection, schedule: Q07DX002 (ip), vehicle: saline) 115 % of control; (dose: 9.0 mg/kg/injection, schedule: Q07DX002 (ip), vehicle: saline) 99 % of control.

For the compound `CSc1ccc2c(c1)C(N1CCN(C)CC1)Cc1ccccc1S2` (centres undefined), where the note is “dose: 50.0 mg/kg/injection, schedule: Q07DX002 (ip), vehicle: saline with Tween-80”, the T/C was 68 % of control and 72 % of control.

On to `S=C(Nc1ccc(Cl)c(Cl)c1)N1c2ccccc2-n2cccc2C1c1cccnc1` (centres undefined), for which the T/C runs as follows: under setting [2], 83 % of control; under setting [6], 113 % of control and 95 % of control; under setting [4], 101 % of control.

Regarding `CCOC(=O)C(CC(C)C)NC(=O)C(Cc1ccc(N(CCCl)CCCl)cc1)NC(C)=O` (centres undefined), the T/C (dose: 32.0 mg/kg/injection, schedule: Q07DX002 (ip), vehicle: saline with Tween-80) was 53 % of control; the T/C (dose: 32.0 mg/kg/injection, schedule: Q07DX003 (ip), vehicle: saline with Tween-80) was 76 % of control; the T/C (dose: 64.0 mg/kg/injection, schedule: Q07DX002 (ip), vehicle: saline with Tween-80) was 36 % of control; the T/C (dose: 64.0 mg/kg/injection, schedule: Q07DX003 (ip), vehicle: saline with Tween-80) is 66 % of control; the T/C (dose: 128.0 mg/kg/injection, schedule: Q07DX003 (ip), vehicle: saline with Tween-80) was 82 % of control.

As for `Cc1cc(NC(=S)SCc2ccc3c(c2)OCO3)ccc1Cl`, the T/C is, setting by setting: under setting [3], 111 % of control; under setting [6], 82 % of control.

As for `CC(C)[C@](O)(C(=O)OCC1=CCN2CC[C@@H](O)[C@@H]12)[C@H](C)O`, the T/C (dose: 12.5 mg/kg/injection, schedule: Q07DX002 (ip), vehicle: suspension in saline) is 123 % of control; the T/C (dose: 25.0 mg/kg/injection, schedule: Q07DX002 (ip), vehicle: suspension in saline) is 76 % of control; the T/C (dose: 50.0 mg/kg/injection, schedule: Q07DX002 (ip), vehicle: saline) is 85 % of control; the T/C (dose: 50.0 mg/kg/injection, schedule: Q07DX002 (ip), vehicle: suspension in saline) was 74 % of control; the T/C (dose: 50.0 mg/kg/injection, schedule: Q07DX002 (ip), vehicle: water) is 73 % of control; the T/C (dose: 100.0 mg/kg/injection, schedule: Q07DX002 (ip), vehicle: suspension in saline) is 56 % of control. Also, the T/C (dose: 100.0 mg/kg/injection, schedule: Q07DX002 (ip), vehicle: water) is 184 % of control; the T/C (dose: 200.0 mg/kg/injection, schedule: Q07DX002 (ip), vehicle: saline) was 105 % of control; the T/C (dose: 200.0 mg/kg/injection, schedule: Q07DX002 (ip), vehicle: suspension in saline) was 98 % of control; the T/C (dose: 400.0 mg/kg/injection, schedule: Q07DX002 (ip), vehicle: saline) was 81 % of control; the T/C (dose: 400.0 mg/kg/injection, schedule: Q07DX002 (ip), vehicle: suspension in saline) was 95 % of control; the T/C (dose: 400.0 mg/kg/injection, schedule: Q07DX002 (ip), vehicle: water) is 52 % of control.

For `C#CCN(Cc1ccc2nc(N)[nH]c(=O)c2c1)c1ccc(C(=O)NC(CCC(=O)O)C(=O)O)cc1` (centres undefined), the T/C under setting [7] was 60 % of control; the T/C (dose: 100.0 mg/kg/injection, schedule: Q07DX002 (ip), vehicle: sodium bicarbonate) was 70 % of control; the T/C (dose: 200.0 mg/kg/injection, schedule: Q07DX002 (ip), vehicle: sodium bicarbonate) was 49 % of control; the T/C (dose: 400.0 mg/kg/injection, schedule: Q07DX002 (ip), vehicle: sodium bicarbonate) is 51 % of control.

On to `O=C(O)c1ccc(C(=O)O)c(C(=O)O)c1.[NH-]C1CCCCC1[NH-].[Pt+2]`, for which the T/C is, setting by setting: (dose: 1.56 mg/kg/injection, schedule: Q07DX002 (ip), vehicle: sodium bicarbonate) 110 % of control; (dose: 3.12 mg/kg/injection, schedule: Q07DX002 (ip), vehicle: sodium bicarbonate) 124 % of control; (dose: 3.12 mg/kg/injection, schedule: Q07DX003 (ip), vehicle: sodium bicarbonate) 20 % of control; (dose: 6.25 mg/kg/injection, schedule: Q07DX002 (ip), vehicle: sodium bicarbonate) 70 % of control; (dose: 6.25 mg/kg/injection, schedule: Q07DX003 (ip), vehicle: sodium bicarbonate) 24 % of control; (dose: 12.5 mg/kg/injection, schedule: Q07DX003 (ip), vehicle: sodium bicarbonate) 10 % of control. Besides, the T/C is 20 % of control and 36 % of control and 44 % of control (dose: 25.0 mg/kg/injection, schedule: Q07DX002 (ip), vehicle: sodium bicarbonate); 33 % of control under setting [7].

Regarding `C/C=C/c1cc2n(c1)C(=O)c1cc(OC3OC(C)C(NC)C(C)(O)C3O)c(C)c(O)c1NC2O` (centres undefined), for the setting “dose: 32.0 micrograms/kg/injection, schedule: Q07DX002 (ip), vehicle: saline”, the T/C is 42 % of control.

Take `COc1cc2c(cc1O)C1C(O)C(O)C=C3CCN(C2)C31` (centres undefined): the T/C reads like this: (dose: 4.0 mg/kg/injection, schedule: Q07DX002 (ip), vehicle: saline + alcohol) 105 % of control; (dose: 8.0 mg/kg/injection, schedule: Q07DX002 (ip), vehicle: saline + alcohol) 79 % of control; (dose: 16.0 mg/kg/injection, schedule: Q07DX002 (ip), vehicle: saline + alcohol) 105 % of control; (dose: 32.0 mg/kg/injection, schedule: Q07DX002 (ip), vehicle: saline + alcohol) 73 % of control.

Turning to `C[C@H](N)C(=O)N[C@@H]1[C@H]2C(=C(O)C[C@@H](O)[C@@H]2O)C(=O)O[C@@H]1C`, the T/C by setting is: (dose: 150.0 mg/kg/injection, schedule: Q07DX002 (ip), vehicle: saline) 65 % of control; (dose: 300.0 mg/kg/injection, schedule: Q07DX002 (ip), vehicle: saline) 96 % of control; (dose: 1200.0 mg/kg/injection, schedule: Q07DX002 (ip), vehicle: saline) 90 % of control; (dose: 2400.0 mg/kg/injection, schedule: Q07DX002 (ip), vehicle: saline) 96 % of control.

For `CCC(C)C(=O)O[C@H]1C(=O)O[C@@H]2C[C@H]3C(C)=CC(=O)[C@@H](O)[C@]3(C)[C@H]3[C@@H](O)[C@H](O)[C@@]4(C)OC[C@]32[C@@H]14` (some centres undefined), the T/C reads like this: (dose: 1.25 mg/kg/injection, schedule: Q07DX002 (ip), vehicle: saline + alcohol) 45 % of control; (dose: 5.0 mg/kg/injection, schedule: Q07DX002 (ip), vehicle: saline + alcohol) 27 % of control and 50 % of control.

`CC1CCC(n2cnc3c(Cl)ncnc32)O1` (centres undefined): the T/C by setting is: under setting [5], 76 % of control; under setting [2], 78 % of control and 100 % of control; (dose: 62.0 mg/kg/injection, schedule: Q07DX002 (ip), vehicle: Klucel (hydroxypropylcellulose) (HPC)) 87 % of control; under setting [3], 86 % of control and 95 % of control; (dose: 125.0 mg/kg/injection, schedule: Q07DX002 (ip), vehicle: Klucel (hydroxypropylcellulose) (HPC)) 115 % of control; under setting [6], 109 % of control and 95 % of control. Besides, the T/C (dose: 250.0 mg/kg/injection, schedule: Q07DX002 (ip), vehicle: Klucel (hydroxypropylcellulose) (HPC)) is 56 % of control.
